According to patent US9539260B2, “Dihydro-benzo-oxazine and dihydro-pyrido-oxazine derivatives” (Novartis AG, priority 2012, dated 2017):

Assays:
[1] = biological target: PI3K alpha (Homo sapiens (Human), UniProt P42336); experiment: Enzymatic PI3K alpha isoform inhibition (lipid kinase activity, Kinase-Glo luminescence); type: biochemical; details: Enzymatic assay
Experimental: (§1) 1.1 Test of Lipid Kinase Activity […]
(§2) In a more preferred assay, the kinase reaction is performed in a final volume of 10 μl per well of a low volume non-binding CORNING, 384 well black plate (Cat. No. #3676). The final concentrations of ATP and phosphatidyl inositol (PI) in the assay are 1 μM and 10 μg/mL, respectively. The reaction is started by the addition of ATP.
(§3) The components of the assay are added per well as follows:
(§4) The Z′ value is a universal measurement of the robustness of an assay. A Z′ between 0.5 and 1.0 is considered an excellent assay.
(§5) IC50 is determined by a four parameter curve fitting routine that comes along with “excel fit”. A four parameter logistic equation is used to calculate IC50 values (IDBS XLfit) of the percentage inhibition of each compound at 8 concentrations (usually 10, 3.0, 1.0, 0.3, 0.1, 0.030, 0.010 and 0.003 μM). Alternatively, IC50 values are calculated using idbsXLfit model 204, which is a 4 parameter logistic model.
(§6) Yet alternatively, for an ATP depletion assay, compounds of the formula I to be tested are dissolved in DMSO and directly distributed into a white 384-well plate at 0.5 μl per well. To start the reaction, 10 μl of 10 nM PI3 kinase and 5 μg/mL 1-alpha-phosphatidylinositol (PI) are added into each well followed by 10 μl of 2 μM ATP. The reaction is performed until approx 50% of the ATP is depleted, and then stopped by the addition of 20 μl of Kinase-Glo solution (Promega Corp., Madison, Wis., USA). The stopped reaction is incubated for 5 minutes and the remaining ATP is then detected via luminescence. IC50 values are then determined.

[2] = biological target: PI3K delta (Homo sapiens (Human), UniProt O00329); experiment: Enzymatic PI3K delta isoform inhibition (lipid kinase activity, Kinase-Glo luminescence); type: biochemical; details: Enzymatic assay
Sequence of PI3K delta (O00329 other isoform, or with tags, fused parts or gaps linker GGGGGG): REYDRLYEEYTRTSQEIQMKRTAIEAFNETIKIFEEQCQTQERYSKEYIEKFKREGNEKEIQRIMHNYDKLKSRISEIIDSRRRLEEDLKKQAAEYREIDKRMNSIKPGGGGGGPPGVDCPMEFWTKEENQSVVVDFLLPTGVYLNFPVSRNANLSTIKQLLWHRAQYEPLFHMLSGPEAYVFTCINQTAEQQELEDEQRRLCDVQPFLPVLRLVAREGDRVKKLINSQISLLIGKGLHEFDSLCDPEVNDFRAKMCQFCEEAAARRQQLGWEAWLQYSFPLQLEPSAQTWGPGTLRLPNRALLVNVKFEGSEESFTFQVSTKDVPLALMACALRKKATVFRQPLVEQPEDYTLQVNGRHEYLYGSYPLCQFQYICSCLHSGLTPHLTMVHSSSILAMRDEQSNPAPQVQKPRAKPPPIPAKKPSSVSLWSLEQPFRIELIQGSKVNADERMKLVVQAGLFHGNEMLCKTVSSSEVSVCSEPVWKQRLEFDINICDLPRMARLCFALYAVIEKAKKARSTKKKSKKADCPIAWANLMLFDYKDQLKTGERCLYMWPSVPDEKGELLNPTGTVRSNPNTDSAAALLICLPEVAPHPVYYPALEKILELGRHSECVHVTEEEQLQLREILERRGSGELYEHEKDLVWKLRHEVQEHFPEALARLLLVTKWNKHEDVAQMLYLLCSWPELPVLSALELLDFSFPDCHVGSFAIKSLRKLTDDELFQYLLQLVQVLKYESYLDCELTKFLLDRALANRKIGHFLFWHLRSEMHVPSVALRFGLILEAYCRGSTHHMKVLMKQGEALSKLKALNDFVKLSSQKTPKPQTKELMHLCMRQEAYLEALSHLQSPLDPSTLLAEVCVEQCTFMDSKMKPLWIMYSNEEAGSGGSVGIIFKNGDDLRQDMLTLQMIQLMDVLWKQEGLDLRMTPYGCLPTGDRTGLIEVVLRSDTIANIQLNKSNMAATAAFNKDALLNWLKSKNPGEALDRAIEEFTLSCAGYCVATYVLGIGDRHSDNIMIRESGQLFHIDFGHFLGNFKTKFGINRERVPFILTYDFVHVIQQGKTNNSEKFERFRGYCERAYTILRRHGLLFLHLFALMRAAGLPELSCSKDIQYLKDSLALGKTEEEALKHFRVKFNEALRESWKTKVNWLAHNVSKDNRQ
Experimental: as §1, §2, §3, §4, §5, §6

Sequence of PI3K alpha (P42336 other isoform, or with tags, fused parts or gaps): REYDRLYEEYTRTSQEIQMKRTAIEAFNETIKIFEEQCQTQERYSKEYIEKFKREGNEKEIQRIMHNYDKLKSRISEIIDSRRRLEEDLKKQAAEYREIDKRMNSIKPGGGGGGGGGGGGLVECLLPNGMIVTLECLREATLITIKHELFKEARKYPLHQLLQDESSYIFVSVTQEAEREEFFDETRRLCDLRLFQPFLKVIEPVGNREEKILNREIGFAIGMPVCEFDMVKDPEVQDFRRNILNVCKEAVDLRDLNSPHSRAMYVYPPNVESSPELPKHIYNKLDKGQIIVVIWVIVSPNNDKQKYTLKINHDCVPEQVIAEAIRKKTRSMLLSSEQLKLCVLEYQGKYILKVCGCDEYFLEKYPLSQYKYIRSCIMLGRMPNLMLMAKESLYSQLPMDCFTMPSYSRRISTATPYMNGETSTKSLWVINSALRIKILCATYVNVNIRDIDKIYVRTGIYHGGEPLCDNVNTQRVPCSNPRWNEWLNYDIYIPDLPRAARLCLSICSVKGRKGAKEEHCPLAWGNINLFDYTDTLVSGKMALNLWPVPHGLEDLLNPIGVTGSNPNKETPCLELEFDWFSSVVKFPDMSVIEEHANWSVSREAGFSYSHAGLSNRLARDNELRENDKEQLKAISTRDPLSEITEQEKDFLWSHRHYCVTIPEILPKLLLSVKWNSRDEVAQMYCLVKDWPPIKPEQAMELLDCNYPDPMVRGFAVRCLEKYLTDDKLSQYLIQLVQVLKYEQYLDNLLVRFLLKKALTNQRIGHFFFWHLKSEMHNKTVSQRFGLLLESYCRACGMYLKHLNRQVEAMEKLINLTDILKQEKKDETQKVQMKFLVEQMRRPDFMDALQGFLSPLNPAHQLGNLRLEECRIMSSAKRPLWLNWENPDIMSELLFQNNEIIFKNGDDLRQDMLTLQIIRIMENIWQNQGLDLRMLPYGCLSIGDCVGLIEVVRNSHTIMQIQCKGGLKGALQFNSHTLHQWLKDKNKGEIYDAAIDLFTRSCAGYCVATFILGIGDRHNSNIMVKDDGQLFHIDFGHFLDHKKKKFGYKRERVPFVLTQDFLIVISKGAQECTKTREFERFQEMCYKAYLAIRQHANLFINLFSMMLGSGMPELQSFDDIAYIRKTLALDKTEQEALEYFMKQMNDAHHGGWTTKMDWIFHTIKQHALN

SMILES	IC50 [1]	IC50 [2]
COCC(=O)N1CC[C@H](Oc2cc3c(cn2)OCCN3c2cnc(OC)c(C(F)F)c2)C1 [Example F9, 1-{(S)-3-[1-(5-Difluoromethyl-6-methoxy-pyridin-3-yl)-2,3-dihydro-1H-pyrido[3,4-b][1,4]oxazin-7-yloxy]-pyrrolidin-1-yl}-2-methoxy-ethanone]	28 nM	< 3 nM
CCC(=O)N1CC[C@H](Oc2ccc3c(c2)N(c2cnc(Cl)c(C)c2)CCO3)C1 [Example B59, 1-{(S)-3-[4-(6-Chloro-5-methyl-pyridin-3-yl)-3,4-dihydro-2H-benzo[1,4]oxazin-6-yloxy]-pyrrolidin-1-yl}-propan-1-one]	461 nM	17 nM
CS(=O)(=O)c1ncc(N2CCOc3ccc(O[C@H]4CCN(C(=O)C5CCOCC5)C4)cc32)cc1F [Example B86, {(S)-3-[4-(5-Fluoro-6-methanesulfonyl-pyridin-3-yl)-3,4-dihydro-2H-benzo[1,4]oxazin-6-yloxy]-pyrrolidin-1-yl}-(tetrahydro-pyran-4-yl)-methanone]	6630 nM	61 nM
Cc1cc(N2CCOc3ccc(O[C@H]4CCN(C(=O)c5cn(C)cn5)C4)cc32)cnc1S(C)(=O)=O [Example B8, {(S)-3-[4-(6-Methanesulfonyl-5-methyl-pyridin-3-yl)-3,4-dihydro-2H-benzo[1,4]oxazin-6-yloxy]-pyrrolidin-1-yl}-(1-methyl-1H-imidazol-4-yl)-methanone]	188 nM	25 nM
CCC(=O)N1CC[C@H](Oc2ccc3c(c2)N(c2cnc(OC)c(C#N)c2)CCO3)C1 [Example A9, 2-Methoxy-5-[6-((S)-1-propionyl-pyrrolidin-3-yloxy)-2,3-dihydro-benzo[1,4]oxazin-4-yl]-nicotinonitrile]	410 nM	14 nM
COc1cc(N2CCOc3ccc(O[C@H]4CCN(C(=O)c5cn(C)cn5)C4)cc32)cnc1OC [Example B48, {(S)-3-[4-(5,6-Dimethoxy-pyridin-3-yl)-3,4-dihydro-2H-benzo[1,4]oxazin-6-yloxy]-pyrrolidin-1-yl}-(1-methyl-1H-imidazol-4-yl)-methanone]	109 nM	7 nM
CCC(=O)N1CC[C@H](Oc2ccc3c(c2)N(c2cnc4ccccc4c2)CCO3)C1 [Example A36, 1-[(S)-3-(4-Quinolin-3-yl-3,4-dihydro-2H-benzo[1,4]oxazin-6-yloxy)-pyrrolidin-1-yl]-propan-1-one]	1270 nM	78 nM
COc1ncc(N2CCOc3ccc(O[C@H]4CCN(C(=O)C5CCOC5)C4)cc32)cc1C#N (single isomer, unassigned) [Example D28]	411 nM	5 nM
COc1ncc(N2CCOc3ccc(O[C@H]4CCN(C(=O)[C@H]5CC[C@H](O)CC5)C4)cc32)cc1C#N [R, 5-{6-[(S)-1-(4-Hydroxy-cyclohexanecarbonyl)-pyrrolidin-3-yloxy]-2,3-dihydro-benzo[1,4]oxazin-4-yl}-2-methoxy-nicotinonitrile]	602 nM	11 nM
CS(=O)(=O)c1ncc(N2CCOc3ccc(O[C@H]4CCN(C(=O)[C@H]5CCOC5)C4)cc32)cc1C(F)F [Example B76, {(S)-3-[4-(5-Difluoromethyl-6-methanesulfonyl-pyridin-3-yl)-3,4-dihydro-2H-benzo[1,4]oxazin-6-yloxy]-pyrrolidin-1-yl}-(S)-tetrahydro-furan-3-yl-methanone]	399 nM	61 nM
COc1cc(N2CCOc3ccc(O[C@H]4CCN(C(=O)CCS(C)(=O)=O)C4)cc32)cnc1OC [Example B45, 1-{(S)-3-[4-(5,6-Dimethoxy-pyridin-3-yl)-3,4-dihydro-2H-benzo[1,4]oxazin-6-yloxy]-pyrrolidin-1-yl}-3-methanesulfonyl-propan-1-one]	574 nM	74.5 nM
COc1ncc(N2CCOc3ccc(O[C@H]4CCN(C(=O)C5CCN(C(C)=O)CC5)C4)cc32)cc1C [Example B90, 1-(4-{(S)-3-[4-(6-Methoxy-5-methyl-pyridin-3-yl)-3,4-dihydro-2H-benzo[1,4]oxazin-6-yloxy]-pyrrolidine-1-carbonyl}-piperidin-1-yl)-ethanone]	1460 nM	11 nM
COc1ncc(N2CCOc3ccc(O[C@H]4CCN(C(=O)c5cn(C)cn5)C4)cc32)cc1NS(C)(=O)=O [U, N-(2-Methoxy-5-{6-[(S)-1-(1-methyl-1H-imidazole-4-carbonyl)-pyrrolidin-3-yloxy]-2,3-dihydro-benzo[1,4]oxazin-4-yl}-pyridin-3-yl)-methanesulfonamide]	192 nM	15 nM
COc1ccc(N2CCOc3ccc(O[C@H]4CCN(C(=O)CN5CCOCC5)C4)cc32)cn1 [Example D2, 1-{(S)-3-[4-(6-Methoxy-pyridin-3-yl)-3,4-dihydro-2H-benzo[1,4]oxazin-6-yloxy]-pyrrolidin-1-yl}-2-morpholin-4-yl-ethanone]	2740 nM	149 nM
COc1ncc(N2CCOc3ccc(O[C@H]4CCN(C(=O)N5CCOCC5)C4)cc32)cc1C#N [Example D34, 2-Methoxy-5-{6-[(S)-1-(morpholine-4-carbonyl)-pyrrolidin-3-yloxy]-2,3-dihydro-benzo[1,4]oxazin-4-yl}-nicotinonitrile]	273 nM	9 nM
CCC(=O)N1CC[C@H](Oc2ccc3c(c2)N(c2cncc(S(C)(=O)=O)c2)CCO3)C1 [Example A37, 1-{(S)-3-[4-(5-Methanesulfonyl-pyridin-3-yl)-3,4-dihydro-2H-benzo[1,4]oxazin-6-yloxy]-pyrrolidin-1-yl}-propan-1-one]	370 nM	78 nM
CCc1cc(N2CCOc3ccc(O[C@H]4CCN(C(=O)C5CCS(=O)(=O)CC5)C4)cc32)cnc1OC [Example B19, (1,1-Dioxo-hexahydro-1lambda*6*-thiopyran-4-yl)-{(S)-3-[4-(5-ethyl-6-methoxy-pyridin-3-yl)-3,4-dihydro-2H-benzo[1,4]oxazin-6-yloxy]-pyrrolidin-1-yl}-methanone]	1160 nM	33 nM
CCC(=O)N1CC[C@H](Oc2ccc3c(c2)N(c2cnc(N)c(C(F)(F)F)c2)CCO3)C1 [Example A17, 1-{(S)-3-[4-(6-Amino-5-trifluoromethyl-pyridin-3-yl)-3,4-dihydro-2H-benzo[1,4]oxazin-6-yloxy]-pyrrolidin-1-yl}-propan-1-one]	104 nM	14 nM
COc1cc(N2CCOc3ccc(O[C@H]4CCN(C(=O)C5CCOCC5)C4)cc32)cnc1OC [Example B38, {(S)-3-[4-(5,6-Dimethoxy-pyridin-3-yl)-3,4-dihydro-2H-benzo[1,4]oxazin-6-yloxy]-pyrrolidin-1-yl}-(tetrahydro-pyran-4-yl)-methanone]	166 nM	3 nM
Cc1cc(N2CCOc3cnc(O[C@H]4CCN(C(=O)C5CC5)C4)cc32)cnc1OC(F)F [Example E11, Cyclopropyl-{(S)-3-[1-(6-difluoromethoxy-5-methyl-pyridin-3-yl)-2,3-dihydro-1H-pyrido[3,4-b][1,4]oxazin-7-yloxy]-pyrrolidin-1-yl}-methanone]	377 nM	< 3 nM
COc1ncc(N2CCOc3cnc(O[C@H]4CCN(C(=O)c5cn6ccsc6n5)C4)cc32)cc1C(F)(F)F [Example G1, Imidazo[2,1-b]thiazol-6-yl-{(S)-3-[1-(6-methoxy-5-trifluoromethyl-pyridin-3-yl)-2,3-dihydro-1H-pyrido[3,4-b][1,4]oxazin-7-yloxy]-pyrrolidin-1-yl}-methanone]	49 nM	17 nM
Cc1cc(N2CCOc3cnc(O[C@H]4CCN(C(=O)C5CCOCC5)C4)cc32)cnc1OC(F)F [Example E9, {(S)-3-[1-(6-Difluoromethoxy-5-methyl-pyridin-3-yl)-2,3-dihydro-1H-pyrido[3,4-b][1,4]oxazin-7-yloxy]pyrrolidin-1-yl}-(tetrahydro-pyran-4-yl)-methanone]	593 nM	7 nM
COc1ncc(N2CCOc3ccc(O[C@H]4CCN(C(=O)[C@H]5CC[C@@H](O)CC5)C4)cc32)cc1F [Example B118, {(S)-3-[4-(5-Fluoro-6-methoxy-pyridin-3-yl)-3,4-dihydro-2H-benzo[1,4]oxazin-6-yloxy]-pyrrolidin-1-yl}-(4-hydroxy-cyclohexyl)-methanone]	498 nM	10 nM
CCC(=O)N1CC[C@H](Oc2ccc3c(c2)N(c2cnc(OC)c(F)c2)CCO3)C1 [Example A11, 1-{(S)-3-[4-(5-Fluoro-6-methoxy-pyridin-3-yl)-3,4-dihydro-2H-benzo[1,4]oxazin-6-yloxy]-pyrrolidin-1-yl}-propan-1-one]	2280 nM	69 nM
CCC(=O)N1CC[C@@H](Oc2ccc3c(c2)N(c2ccc(OC)nc2)CCO3)C1 [Example C3, 1-{(R)-3-[4-(6-Methoxy-pyridin-3-yl)-3,4-dihydro-2H-benzo[1,4]oxazin-6-yloxy]-pyrrolidin-1-yl}-propan-1-one]	3380 nM	1210 nM
COc1cc(N2CCOc3ccc(O[C@H]4CCN(C(=O)C5COCCO5)C4)cc32)cnc1OC (single isomer, unassigned) [Example H5]	477 nM	11 nM
